Structures can show the parent of a compound that is named as a salt. Where two headings read alike, the source gives them in different places.
Key:
[1] = hygroscopicity (moisture sorption) by DVS; type: physicochemical; settings: exposed to 95% RH, DVS
Excerpt: The free base of Compound 1 was obtained originally as an amorphous solid, which is slightly hygroscopic with 2.2% water gain from 0 to 80% RH. No form transformation was observed after dynamic vapor sorption (DVS).

[2] = short-term stability study (1 week, 60° C. and 40° C./75% RH); type: physicochemical; settings: for TRS %: sesqui-maleate salt
Method: Weighed about 2 mg (For XRPD: 10 mg) of each of the above salts in a 40 mL glass vial, separately. The free base form was used as control. The closed samples were capped and sealed with parafilm, while the opened samples were covered by aluminum foil with pinhole. All the samples were stored in stability chamber or dry oven at the corresponding conditions (60° C. and 40° C./75% RH) for 1 week.

A375 cells = assay: CellTiter-Glo luminescent cell viability assay; type: cell-based; settings: Homo sapiens, A-375, 72 h; A375, BRAF V600E, 3-day exposure, N=2; read-out: Compound 1 EC50 (mean ± SD)
Method: (§1) A375, Sk-Mel-28, HT29, Colo205, A431, and HCC827 cell lines were purchased from American Type Culture Collection. All the cell lines used in the cellular assays were cultured in the designated medium supplemented with 10% fetal bovine serum (FBS, Thermo Scientific), 100 units/mL penicillin (Gibco), 0.1 mg/mL streptomycin (Gibco) and in a humidified 37° C. environment with 5% CO2. Cell lines were reinstated from frozen stocks laid down within three passages from the original cells purchased and passaged no more than 30 times.
(§2) The growth-inhibitory activity of compounds in a panel of melanoma, colon, breast and lung cancer cells was determined using CellTiter-Glo luminescent cell viability assay (Promega). The number of cells seeded per well of a 96-well plate was optimized for each cell line to ensure logarithmic growth over the 3 days treatment period. Cells were left to attach for 16 hours and then treated with a 10-point dilution series in duplicate. Following a 3-day exposure to the compound, a volume of CellTiter-Glo reagent equal to the volume of cell culture medium present in each well was added. Mixture was placed on an orbital shaker for 2 minutes to allow cell lysing, followed by 10 minutes incubation at room temperature to allow development and stabilization of luminescent signal. Luminescent signal was measured using PHERAstar FS reader (BMG Labtech). EC50 values for cell viability were determined with GraphPad Prism software.

Colo-205 cells = assay: CellTiter-Glo luminescent cell viability assay; type: cell-based; settings: Homo sapiens, 72 h; Colo-205, BRAF V600E, 3-day exposure, N=2; read-out: Compound 1 EC50 (mean ± SD)
Method: as §1, §2

HT-29 cells = assay: CellTiter-Glo luminescent cell viability assay; type: cell-based; settings: Homo sapiens, 72 h; HT-29, BRAF V600E, 3-day exposure, N=2; read-out: Compound 1 EC50 (mean ± SD)
Method: as §1, §2

Sk-Mel-28 cells = assay: CellTiter-Glo luminescent cell viability assay; type: cell-based; settings: Homo sapiens, 72 h; Sk-Mel-28, BRAF V600E, 3-day exposure, N=2; read-out: Compound 1 EC50 (mean ± SD)
Method: as §1, §2

[3] = pharmacokinetic study (LC-MS/MS); type: in vivo, beagle dogs; settings: dogs
Excerpt: The fully-validated LC-MS/MS method was well used for the pharmacokinetic (PK) studies of Crystalline Form A* of Compound 1 Sesqui-Maleate in Sprague-Dawley rats and beagle dogs following single- and multiple-dose administrations.

[4] = tested on: P450 enzymes in rat liver; assay: P450 enzyme induction; type: in vitro ADME
CYP2C8 = CYP2C8 (Homo sapiens, UniProt P10632); assay: CYP inhibition; type: in vitro ADME
CYP2C8, sequence (P10632 whole entry): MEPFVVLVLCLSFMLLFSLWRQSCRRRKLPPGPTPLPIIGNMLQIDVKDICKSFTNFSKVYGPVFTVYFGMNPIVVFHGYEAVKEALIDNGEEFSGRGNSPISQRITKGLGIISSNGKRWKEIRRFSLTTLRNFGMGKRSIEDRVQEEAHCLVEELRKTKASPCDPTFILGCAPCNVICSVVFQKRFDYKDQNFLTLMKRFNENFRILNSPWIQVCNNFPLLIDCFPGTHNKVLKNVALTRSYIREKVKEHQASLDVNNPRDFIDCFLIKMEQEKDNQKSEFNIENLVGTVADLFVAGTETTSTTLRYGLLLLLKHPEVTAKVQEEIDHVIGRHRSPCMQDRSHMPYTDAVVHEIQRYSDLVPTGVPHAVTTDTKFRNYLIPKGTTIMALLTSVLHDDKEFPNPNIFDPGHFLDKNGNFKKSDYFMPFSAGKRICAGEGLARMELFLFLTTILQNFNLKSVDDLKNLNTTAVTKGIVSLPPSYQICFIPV

drug metabolism enzymes = assay: inhibition of drug metabolism enzymes; type: in vitro ADME; settings: except CYP2C8 and CYP2C19
[5] = pharmacokinetic comparison of sesqui-maleate and free base, oral; type: in vivo, Beagle dogs; settings: dogs
Excerpt: Drugs and reagents: Crystalline Form A* of Compound 1 Sesqui-Maleate with particle sizes of D90=4.1 um, D10=1.5 um, D50=2.4 um after micronization. The material content (purity) was not less than 98.0%.
Experiment animals: Beagle dogs, male and female.
Pharmaceutical preparation: Weigh the appropriate amount of each substance and disperse in 0.5% sodium carboxymethyl cellulose (for the free base of Compound 1) or 0.5% methyl cellulose solution (for Compound 1 Sesqui-Maleate). Prepare a suspension at the desired concentration of Compound 1. All the doses and concentrations of Compound 1 were calculated with free base in this study.
Administration and sample collection: The dosing solutions will be freshly prepared prior to dose administration. The actual body weights and actual volume injected will be recorded accordingly. The dogs were fasted overnight and were allowed to intake food four hours after dosing. Each suspension was administrated orally to dogs at a dose ranged from 0.5 to 15 mg/kg. Blood samples (˜1.0 mL) will be collected at pre-dose and at different times up to 36 hours postdosing via cephalic vein plexus. Whole blood will be processed by centrifugation and plasma samples will be collected and kept at freezer prior to analysis. Plasma samples were processed by protein precipitation. Concentrations of Compound 1 in the plasma samples were determined using a validated liquid chromatography-tandem mass spectrometry (LC-MS/MS) method. The plasma concentration-time data were analyzed using a non-compartmental model using Pharsight WinNonlin.

[6] = oral dose 1 mg/kg (free base), listed as Sesqui-Maleate (Micronized Crystalline Form A*), sesqui-maleate salt, 1 mg/kg

O=C1CCc2c(Oc3ccc4c(c3)[C@@H]3[C@H](O4)[C@H]3c3nc4ccc(C(F)(F)F)cc4[nH]3)ccnc2N1 [5-(((1R,1aS,6bR)-1-(6-(trifluoromethyl)-1H-benzo[d]imidazol-2-yl)-1a,6b-dihydro-1H-cyclopropa[b]benzofuran-5-yl)oxy)-3,4-dihydro-1,8-naphthyridin-2(1H)-one sesqui-maleate salt]
water uptake [1]: 0.1801%
TRS % ([2]; 0 day): 0.08%
TRS % ([2]; 40° C./75% RH, 1 week): 0.10%
TRS % ([2]; 60° C., 1 week): 0.17%
chemical degradation ([2]; after one week at 60° C. and 40° C./75% RH): did not show degradations
appearance by visual observation ([2]; both conditions after 1 week): no change
EC50 (A375 cells): 137 ± 0.5 nM
EC50 (Colo-205 cells): 147 ± 0.6 nM
EC50 (HT-29 cells): 138 ± 13 nM
EC50 (Sk-Mel-28 cells): 251 ± 54 nM
bioavailability ([3]; beagle, dog, in vivo, po): 41 to 82%
half-life ([3]; beagle, dog, in vivo, after oral administration, read-out: elimination half-life): 3.3 to 4.9 h
accumulation after multiple dosing [3]: No accumulation
kinetics over dose range ([3]; 1.5 to 15 mg/kg): linear
induction effect on P450 enzymes [4]: No significant induction effect
IC50 (CYP2C8): 1030 nM
inhibitory activity on drug metabolism enzymes (drug metabolism enzymes): no inhibitory activity
Cmax ([5]; both sexes, beagle, dog, plasma, po, 0.5 mg/kg, oral dose 0.5 mg/kg, read-out: Cmax): 342 ng/mL
Cmax ([5]; both sexes, beagle, dog, plasma, po, 1.5 mg/kg, oral dose 1.5 mg/kg, read-out: Cmax): 861 ng/mL
Cmax ([5]; both sexes, beagle, dog, plasma, po, 4.5 mg/kg, oral dose 4.5 mg/kg, read-out: Cmax): 2880 ng/mL
Cmax ([5]; both sexes, beagle, dog, plasma, po, 15 mg/kg, oral dose 15 mg/kg, read-out: Cmax): 5310 ng/mL
AUC0-inf relative to the free base form ([5]; oral): 2-3 times
Cmax relative to the free base form ([5]; oral): 2-3 times
Dose-Normalized AUC0-inf ([5]; oral dose 0.5 mg/kg): 4178 ng·kg·h/mL/mg
Cmax [5, 6]: 607 ng/mL
Dose-Normalized AUC0-inf [5, 6]: 2960 ng·kg·h/mL/mg
Dose-Normalized AUC0-inf ([5]; oral dose 1.5 mg/kg): 3726 ng·kg·h/mL/mg
Dose-Normalized AUC0-inf ([5]; oral dose 4.5 mg/kg): 4390 ng·kg·h/mL/mg
Dose-Normalized AUC0-inf ([5]; oral dose 15 mg/kg): 2841 ng·kg·h/mL/mg

— US10351559B2, “Maleate salts of a B-RAF kinase inhibitor, crystalline forms, methods of preparation, and uses therefore” (BeiGene, Ltd., priority 2015, dated 2019)
